The text below walks through data of US7196115B2, “Pharmaceutical composition containing brevifoliol for use in chemotherapeutic treatment of human beings, method therefor” (Council of Scientific and Industrial Research, priority 2002, dated 2007).

The test system of data set [1] is KB-403 mouth cancer cells. The method, then:
(§1) As a part of the studies on the isolation of anticancer compounds a number of taxanes were isolated from the needles of the plant Taxus wallichiana and tested for their anti-cancer properties against six human cancer cell lines in-vitro. The bioactivity testing was done at two stages. In the initial step, MTT assay was performed from which the inhibitory concentration (IC90) the concentration (μg/mL) of the taxanes required for 90% inhibition of cell growth was deduced. […] The MTT assay cannot discriminate between growth inhibition and cell death; it is an overall measurement of cell proliferation (Woerdenbag et al., 1993; J.Nat.Prod. 56 (6): 849–856). Therefore the IC90 data obtained by the MTT assay may overestimate the cell killing activity of a compound. […] Persons skilled in the art of anti-cancer drug discovery can perform both these assays.
(§2) The following six human cancer lines were procured from the Cell Repository of the National Center for Cell Sciences (NCSS) at Pune. Their corresponding ATCC No. and the organ from which they were isolated are also mentioned in Table 1 below:
(§3) Cytotoxicity testing in vitro was done by the method of Woerdenbag et al.,1993; J.Nat.Prod. 56 (6): 849–856). 2×10^3 cells/well were incubated in the 5% CO2 incubator for 24 h to enable them to adhere properly to the 96 well polysterene microplate (Grenier, Germany). Test compounds dissolved in 100% DMSO (Merck,Germany) in at least five doses were added and left for 6 h after which the compound plus media was replaced with fresh media and the cells were incubated for another 48 h in the CO2 incubator at 37° C. […] Then, 10 μl MTT [3-(4,5-dimethylthiazol-2-yl)-2,5-diphenyltetrazolium bromide; Sigma M 2128] was added, and plates were incubated at 37° C. for 4 h. 100 μl dimethyl sulfoxide (DMSO, Merck, Germany) were added to all wells and mixed thoroughly to dissolve the dark blue crystals. After a few minutes at room temperature to ensure that all crystals were dissolved, the plates were read on a SpectraMax 190 Microplate Elisa reader (Molecular Devices Inc., USA), at 570 nm. Plates were normally read within 1 h of adding the DMSO. The experiment was done in triplicate and the inhibitory concentration (IC) values were calculated as follows: % inhibition=[1-OD (570 nm) of sample well/OD (570 nm) of control well]×100. IC90 is the concentration μg/mL required for 90% inhibition of cell growth as compared to that of untreated control.

The test system of data set [2] is KB-403 mouth cancer cells. On the procedure: as §1
(§4) The clonogenic assay for tumor cells which determines the actual cell death was performed to determine the cytotoxic potential of test compounds. The principle of clonogenic assay is to investigate the ability of an individual cell to form a colony on a soft agar plate containing various concentrations of test compounds.
(§5) Cells not able to form colonies are considered clonogenically dead (Beekman et al 1997; J.Nat.Prod. 60(4): 325–330). The concentration of test compound resulting in […] was denoted as IC90 and was used as a parameter for cytotoxicity. The assay was performed as described previously except that the test compounds were added into the top soft agar and the cells were plated out to form colonies. Anthracycline derivative doxorubicin and microtubule depolymerization inhibitor paclitaxel (Sigma Chem. Co., St. Loius, USA) both established anticancer agents were included as standard reference drugs.
The source holds these as a separate data set.

Data set [3] deals with MCF-7 breast cancer cells. Nature of the data set: Soft agar assay for colony formation (clonogenic assay). The data set is classed as cell-based, human. Conditions: compound in top soft agar; for Cytotoxic properties (IC 90) MCF-7: colony formation on soft agar; for IC90: Homo sapiens, MCF7, colony formation on soft agar, read-out: Cytotoxic properties (IC 90) MCF-7. The source says: (§6) The bioactivity testing was done at two stages.

The subject of data set [4] is Caco-2 colon cancer cells. Described as above. Conditions: compound in top soft agar; for Cytotoxic properties (IC 90) Caco-2: colony formation on soft agar; for IC90: Homo sapiens, Caco-2, colony formation on soft agar, read-out: Cytotoxic properties (IC 90) Caco-2. The data set is classed as cell-based, human.
Source text: as §6

Data set [5] has as its system PA-1 ovary cancer cells. The data set is described as above. It is filed as cell-based, human. Conditions: colony formation on soft agar, compound in top soft agar; for IC90: Homo sapiens, read-out: Cytotoxic properties (IC 90) PA-1.
Source text: as §6

The subject of data set [6] is MCF-7 breast cancer cells. Nature of the data set: In-vitro anticancer MTT assay. It is filed as cell-based, human. As to conditions: for IC90: Homo sapiens, MCF7, read-out: Cytotoxic properties (IC 90) MCF-7.
Source text: as §6
For orientation: Formazan colour is commonly taken as a measure of viable cells.

Data set [7] relates to Caco-2 colon cancer cells. The data set can be described thus: In-vitro anticancer MTT assay. The data set is classed as cell-based, human. Conditions: for IC90: Homo sapiens.
Source text: as §6

For data set [8], the system named is PA-1 ovary cancer cells. Nature of the data set: In-vitro anticancer MTT assay. It is filed as cell-based, human. As to conditions: for Cytotoxic properties (IC 90) PA-1 / IC90: MTT assay, 6 h exposure, then 48 h in fresh media, 90% inhibition of cell growth; for IC90: Homo sapiens, read-out: Cytotoxic properties (IC 90) PA-1.
Source text: as §6

Data set [9] concerns WRL-68 liver cancer cells. The data set can be described thus: In-vitro anticancer MTT assay. Conditions: for IC90: Homo sapiens, WRL68, read-out: Cytotoxic properties (IC 90) WRL-68. On the procedure:
as §1, §2, §3

Data set [10] deals with WRL-68 liver cancer cells. The data set can be described thus: Soft agar assay for colony formation (clonogenic assay). Conditions: for IC90: Homo sapiens, WRL68, read-out: Cytotoxic properties (IC 90) WRL-68. The method, then:
as §1, §4, §5

The test system of data set [11] is COLO-320DM colon cancer cells. Nature of the data set: In-vitro anticancer MTT assay. The data set is classed as cell-based, human. As to conditions: 6 h exposure, then 48 h in fresh media, 90% inhibition of cell growth; for IC90: Homo sapiens, COLO 320DM, read-out: Cytotoxic properties (IC 90) COLO-320 DM.
Source text: as §6

For data set [12], the system named is COLO-320DM colon cancer cells. Nature of the data set: Soft agar assay for colony formation (clonogenic assay). The data set is classed as cell-based, human. As to conditions: colony formation on soft agar, compound in top soft agar; for IC90: Homo sapiens, COLO 320DM, read-out: Cytotoxic properties (IC 90) COLO-320 DM.
Source text: as §6

[13] abbreviates: MTT assay, 6 h exposure, then 48 h in fresh media, 90% inhibition of cell growth.
[14] abbreviates: clonogenic assay, colony formation on soft agar, compound in top soft agar.
Where [15] appears, read: Caco-2, MTT assay, 6 h exposure, then 48 h in fresh media, 90% inhibition of cell growth, read-out: Cytotoxic properties (IC 90) Caco-2.

≈ marks a conversion by molar mass, not a printed value. Where two headings read alike, the source gives them in different places.

With 2′-Deacetoxy austrospicatin, the “Cytotoxic properties (IC 90) KB-403” value in data set [1] (setting [13]) was found to be 4.5 µg/mL; in [2] (setting [14]), 0.44 µg/mL. Moreover, the “Cytotoxic properties (IC 90) MCF-7” value was determined as 5.63 µg/mL in data set [3] and 3.5 µg/mL in data set [6] (setting [13]). For the same compound, the “Cytotoxic properties (IC 90) Caco-2” value in data set [4] was 3.16 µg/mL; in [7] (setting [13]), 1.0 µg/mL. The results for the “Cytotoxic properties (IC 90) PA-1” value in data set [5] and in data set [8] were 6.3 µg/mL and 4.0 µg/mL, respectively.

On to `C=C1[C@H]2C[C@@H]3C[C@H](OC(C)=O)C(C)=C([C@@H](OC(C)=O)[C@H](OC(C)=O)[C@]2(C)[C@@H](OC(C)=O)C[C@@H]1O)C3(C)C` [2-deacetoxy decinnamoyl taxinine J], for which the “Cytotoxic properties (IC 90) WRL-68” value in [9] (setting [13]) was determined as 0.5 µg/mL; in data set [10] (setting [14]), 12.58 µg/mL. For the same compound, the “Cytotoxic properties (IC 90) KB-403” value stood at 0.01 µg/mL in data set [1] (setting [13]) and 0.11 µg/mL in data set [2] (setting [14]). The results for the “Cytotoxic properties (IC 90) Caco-2” value in data set [4] and in data set [7] (setting [13]) were 31.82 µg/mL and 6.4 µg/mL, respectively. Moreover, the “Cytotoxic properties (IC 90) PA-1” value came out at 15.84 µg/mL in data set [5] and 10.0 µg/mL in data set [8]. Besides, in data set [11], the “Cytotoxic properties (IC 90) COLO-320 DM” value is over 10.0 µg/mL.

With `C=C1[C@@H](OC(=O)/C=C/c2ccccc2)C[C@H](OC(C)=O)[C@]2(C)[C@@H]1C[C@@H]1C[C@H](OC(C)=O)C(C)=C([C@@H](OC(C)=O)[C@@H]2OC(C)=O)C1(C)C` [2-deacetoxy taxinine J], the “Cytotoxic properties (IC 90) KB-403” value in data set [1] (setting [13]) turned out to be 3.5 µg/mL; in [2] (setting [14]), 28.18 µg/mL. The “Cytotoxic properties (IC 90) MCF-7” value in [3] was 7.94 µg/mL; in data set [6] (setting [13]) it was 6.5 µg/mL. Also, the “Cytotoxic properties (IC 90) COLO-320 DM” value in data set [12] turned out to be 10.0 µg/mL; in data set [11], 1.0 µg/mL. Moreover, the “Cytotoxic properties (IC 90) Caco-2” value was 0.25 µg/mL in data set [4] and 0.009 µg/mL in [7] (setting [13]).

As for `CC(=O)O[C@H]1C[C@H]2OC[C@@]2(OC(C)=O)[C@H]2[C@H](OC(C)=O)[C@]3(C(C)(C)O)C[C@H](O)C(C)=C3[C@@H](O)[C@H](OC(C)=O)[C@]12C` [10,13,deacetyl abeobaccatin IV], in data set [1] (setting [13]), the “Cytotoxic properties (IC 90) KB-403” value was over 10.0 µg/mL. In data set [6], the “Cytotoxic properties (IC 90) MCF-7” value is over 10.0 µg/mL.

`C=C1C2C[C@]3(C(C)(C)O)CC(O)C(C)=C3[C@@H](OC(=O)c3ccccc3)[C@H](OC(C)=O)[C@]2(C)[C@@H](OC(C)=O)C[C@@H]1O` (some centres unmarked) [Brevifoliol, brevifoliol]: the IC90 in data set [9] is over 10 µg/mL; in data set [10], 15.8 µg/mL (≈ 28.5 µM); in data set [3] it was 1.99 µg/mL (≈ 3.57 µM); in [12] it was 1 µg/mL (≈ 1.8 µM); in data set [4], 0.31 µg/mL (≈ 0.557 µM); in [5], 7.94 µg/mL (≈ 14.3 µM). The IC90 was 0.004 µg/mL (≈ 0.00719 µM) in data set [6] (setting [13]); 0.1 µg/mL (≈ 0.18 µM) in data set [11]; 0.85 µg/mL (≈ 1.53 µM) in data set [7] (Caco-2, read-out: Cytotoxic properties (IC 90) Caco-2); 6 µg/mL (≈ 10.8 µM) in [8]. In data set [9] (summary of Table 2), the “activity against WRL-68 liver cancer cells, in words” value is recorded as “active against all cancer cell lines except liver cancer (WRL-68)”. In addition, the “Cytotoxic properties (IC 90) KB-403” value in data set [1] (setting [13]) is 0.035 µg/mL; in data set [2] (setting [14]), 0.398 µg/mL. Besides, in data set [1] (summary of the bioassay data), the “activity against KB-403 cancer cells, in words” value is recorded as “highly inhibitory”. In [6] (summary of the bioassay data), the “activity against MCF-7 cancer cells, in words” value is reported as “highly inhibitory”. The “activity against Caco-2 cancer cells, in words” value in [7] (summary of the bioassay data) is on record as “highly inhibitory”. For the same compound, the “activity against PA-1 cancer cells, in words” value in data set [8] (summary of the bioassay data) is “highly inhibitory”.

For `COc1cccc2c1C(=O)c1c(O)c3c(c(O)c1C2=O)C[C@@](O)(C(=O)CO)C[C@@H]3O[C@H]1C[C@H](N)[C@H](O)[C@H](C)O1` [Doxorubicin (Std), doxorubicin, reference compound], the IC90 in data set [9] came to 1 µg/mL (≈ 1.84 µM); in data set [10], 3.98 µg/mL (≈ 7.32 µM); in data set [3] it was 0.8 µg/mL (≈ 1.47 µM); in data set [12], 0.1 µg/mL (≈ 0.184 µM); in data set [4], 0.079 µg/mL (≈ 0.145 µM); in [5], 10 µg/mL (≈ 18.4 µM). The IC90 in [6] (setting [13]) turned out to be 0.01 µg/mL (≈ 0.0184 µM); in [11] it was 0.08 µg/mL (≈ 0.147 µM); in data set [7] (setting [15]), 0.052 µg/mL (≈ 0.0957 µM); in data set [8] it was 0.5 µg/mL (≈ 0.92 µM). Moreover, the “Cytotoxic properties (IC 90) KB-403” value in [1] came to 0.06 µg/mL.

With `CC(=O)O[C@H]1C(=O)[C@@]2(C)[C@H]([C@H](OC(=O)c3ccccc3)[C@]3(O)C[C@H](OC(=O)[C@H](O)[C@@H](NC(=O)c4ccccc4)c4ccccc4)C(C)=C1C3(C)C)[C@]1(OC(C)=O)CO[C@@H]1C[C@@H]2O` [Taxol (Std), taxol, reference compound], the IC90 in [9] stood at 2.5 µg/mL (≈ 2.93 µM); in data set [10], 6.3 µg/mL (≈ 7.38 µM); in data set [3], 1.99 µg/mL (≈ 2.33 µM); in data set [12] it was 0.8 µg/mL (≈ 0.937 µM); in data set [4], 1.99 µg/mL (≈ 2.33 µM); in data set [5], 1.47 µg/mL (≈ 1.72 µM). In addition, the IC90 in data set [6] (setting [13]) turned out to be 0.85 µg/mL (≈ 0.995 µM); in data set [11], 0.01 µg/mL (≈ 0.0117 µM); in data set [7] (setting [15]) it was 0.065 µg/mL (≈ 0.0761 µM); in [8], 0.9 µg/mL (≈ 1.05 µM). The “Cytotoxic properties (IC 90) KB-403” value turned out to be 0.047 µg/mL in [1] and 7.94 µg/mL in [2].

For the compound Acetoxy brevifoliol, the entries for the “Cytotoxic properties (IC 90) WRL-68” value in data set [9] and in [10] were 5.0 µg/mL and 7.0 µg/mL, respectively. Besides, the entries for the “Cytotoxic properties (IC 90) KB-403” value in [1] and in data set [2] were 10.0 µg/mL and 1.0 µg/mL, respectively.
